Assay results: patent US9540299B2, “MTOR-independent activator of TFEB for autophagy enhancement and uses thereof” (Hong Kong Baptist University, priority 2015, dated 2017)

Legend:
[1] = test system: SH-SY5Y cells; assay: Real-time PCR of autophagy and lysosome genes in SH-SY5Y cells; type: cell-based, human; conditions: 1 μM, 12 h
Protocol: (§1) Various gene expressions in Hela cells (FIG. 7A) and SH-SY5Y cells (FIG. 7B) after treated with C1 (1 μM) for 12 h. mRNA transcript abundance is assessed by real-time PCR using specific primers for the indicated genes. Relative quantification (RQ) is presented as means±SD of three independent experiments. FIG. 7C is western blot showing the protein levels of autophagy marker (LC3-II), TFEB and lysosome markers (LAMP1, CTSD) in Hela and SH-SY5Y cells having treated with C1 (0.5, 1 μM) or sucrose (100 mM) for 12 h. The relative intensity of autophagy marker (LC3-II), TFEB and lysosome markers (LAMP1, CTSD) normalized to that of ACTB/β-actin in Hela cells (FIG. 7D) and SH-SY5Y cells (FIG. 7E). Data are presented as the mean±SD from three independent experiments. *p<0.05 vs. the control (0.1% DMSO). […] Autophagy-enhancing effect of C1 is TFEB-dependent. Data are presented as the mean±SD from three independent experiments. *p<0.05 vs. the control. N. S.=not significant.
Total RNA is extracted from cells and tissues using RNeasy Plus Mini Kit (74134, Qiagen). Reverse transcription is performed using High-Capacity cDNA Reverse Transcription Kit (4368814, Life Technologies). […] Fold changes are calculated using the ΔΔCT method and the results were normalized against an internal control (GAPDH or ACTB).

[2] = test system: Hela cells; assay: Western blot of TFEB, LC3-II, LAMP1, CTSD in Hela cells; type: cell-based, human
Protocol: as §1
N2a, Hela and Hela cells stably expressing 3×-Flag-TFEB are cultured in DMEM supplemented with 10% FBS. SH-SY5Y cells are cultured in DMEM/F12 supplemented with 10% FBS. For drug treatment, the full medium is replaced by fresh Opti-MEM I and then the compounds (in 0.1% DMSO) are added to the cells and incubated for 12 h. Inducible PC12 cells overexpressing SNCA (WT and A53T) (a kind gift from Prof. David C. Rubinsztein at Cambridge University) are grown in DMEM supplemented with 10% horse serum, 5% FBS, 50 μg/ml G418, and 150 μg/ml hygromycin B at 37° C., 10% CO2. Cells are treated with 2 μg/ml doxycycline (Dox) for 24 h to induce SNCA expression. The full medium is changed to Opti-MEM I containing the testing compounds for another 48 h. […]
Cells are lysed on ice in 1× Lysis Buffer (9803, Life Technologies) with complete protease inhibitor mixture (04693124001, Roche Applied Science). […] The protein signals are detected by ECL kit (32106, Pierce) and quantified using ImageJ software.

[3] = test system: N2a cells; assay: LC3 puncta and tfLC3 autophagy flux imaging in N2a cells; type: cell-based, mouse
Protocol: N2a cells are treated with E4 (1 μM) in the presence or absence of CQ for 12 hours. The cells are fixed and stained with LC3 antibody (red) and DAPI (blue). Representative cells are then selected and photographed under a DeltaVision Deconvolution Microscope (GE Healthcare).
N2a cells are transiently transfected with mRFP-GFP-LC3 (tfLC3) plasmid and then treated with E4 (1 μM) or CQ (1 μM) for 12 hours. Representative cells are then selected and photographed under a DeltaVision Deconvolution Microscope (GE Healthcare).
After transiently knockdown the expression of TFEB, N2a cells are treated with E4 (1 μM) for 12 hours, the cells were then stained with LC3 antibody (red) and DAPI (blue).
Cells are seeded on coverslips placed in 24-well plates. For autophagy flux assay, cells are transfected with tfLC3 plasmid for 24 hours and then treated with the indicated compounds. For other assays, at the end drug treatment, slices are fixed with 3.7% paraformaldehyde, permeabilized in 0.2% Triton X-100 and blocked with 5% BSA. After blocking, the slices are stained with anti-TFEB (1:200) or anti-LC3 (1:500) antibodies overnight at 4° C. […] Cells are visualized using the Eclipse 80i fluorescence microscope (Nikon Instruments Inc.) or the DeltaVision Deconvolution Microscope (GE Healthcare).

SMILES | mRNA of TFEB and genes involved in autophagy and lysosome biogenesis [1] | autophagy/lysosomal biogenesis (LC3-II, LAMP1, CTSD protein levels) ([2]; Hela cells, 0.5, 1 μM, 12 h) | protein levels of TFEB ([2]; Hela cells, 0.5, 1 μM, 12 h) | increase in LC3-II levels in cells transfected with TFEB siRNA ([2]; Hela cells, siTFEB 100 nM 72 h, then 1 μM 12 h) | mRFP-GFP-LC3 (tfLC3) puncta (autophagy flux, autolysosome formation) ([3]; N2a cells transfected with tfLC3, 12 hours) | LC3 punctuates in the presence of CQ ([3]; N2a cells, 1 μM, 12 hours) | LC3 punctuates compared to vehicle control ([3]; N2a cells, 1 μM, 12 hours, endogenous LC3 staining)
COc1ccccc1/C=C/C(=O)/C=C/c1ccccc1OC [C1, 1,5-bis(2-methoxyphenyl)penta-1,4-dien-3-one] | up-regulated | activated | increased | blocked |  |  | 
O=C(/C=C/c1ccccc1I)/C=C/c1ccccc1I [E4] |  |  |  |  | significantly increases the number of red-only puncta | further enhances | significantly increases
